Test results from ChEMBL document CHEMBL4706632, “Development of Potential Antitumor Agents from the Scaffolds of Plant-Derived Terpenoid Lactones” (J Med Chem, 2020).
Blank lines part the entries; values can stand above or below the molecule they belong to.

What was measured:
HT-29 = assay: Cytotoxicity against human HT-29 cells incubated for 72 hrs by sulforhodamine B assay; type: functional, cell-based; conditions: HT-29, 72 h
NCI-H446 = assay: Cytotoxicity against human NCI-H446 cells; type: functional, cell-based
MCF7 [1] = assay: Cytotoxicity against human MCF7 cells; type: functional, cell-based
HeLa = assay: Cytotoxicity against human HeLa cells; type: functional, cell-based
HL-60 = assay: Cytotoxicity against human HL-60 cells incubated for 72 hrs by ATPlite assay; type: functional, cell-based; conditions: HL-60, 72 h
HCT-116 = assay: Cytotoxicity against human HCT116 cells incubated for 72 hrs by ATPlite assay; type: functional, cell-based; conditions: HCT-116, 72 h
SW626 = assay: Cytotoxicity against human SW626 cells; type: functional, cell-based
CCRF-CEM = assay: Cytotoxicity against human CEM cells incubated for 72 hrs by MTT assay; type: functional, cell-based
Jurkat [2] = assay: Cytotoxicity against human Jurkat cells incubated for 72 hrs by ATPlite assay; type: functional, cell-based
L1210 = assay: Cytotoxicity against mouse L1210 cells; type: functional, cell-based
[3] = Cytotoxicity against human Lu-1 cells; type: functional, cell-based; conditions: Lu1
LNCaP [4] = assay: Cytotoxicity against human LNCaP cells; type: functional, cell-based
WM 266-4 = assay: Cytotoxicity against human WM 266-4 cells incubated for 72 hrs by ATPlite assay; type: functional, cell-based; conditions: WM 266-4, 72 h
MDA-MB-231 = assay: Antiproliferative activity against human MDA-MB-231 cells incubated for 24 hrs by MTT assay; type: functional, cell-based; conditions: MDA-MB-231, 24 h
[5] = Cmax in Sprague-Dawley rat at 10 mg/kg, po measured after 0.25 to 72 hrs by LC/QTOF/MS method; type: ADME, organism-based; set-up: route oral, time upper 72 hrs, time lower 0.25 hrs, dose 10 mg/kg; conditions: in vivo
[6] = Cmax in Sprague-Dawley rat at 10 mg/kg, iv measured after 0.08 to 72 hrs by LC/QTOF/MS method; type: ADME, organism-based; set-up: route intravenous, dose 10 mg/kg, time upper 72 hrs, time lower 0.08 hrs; conditions: in vivo
MCF7 [7] = assay: Antiproliferative activity against human MCF7 cells incubated for 24 hrs by MTT assay; type: functional, cell-based; conditions: MCF7, 24 h
AGS = assay: Cytotoxicity against human AGS cells incubated for 72 hrs by Alamar Blue method; type: functional, cell-based
[8] = Antiproliferative activity against human PaTu8988 incubated for 72 hrs by alamar blue assay; type: functional; conditions: PaTu8988, 72 h
DU-145 = assay: Antiproliferative activity against human DU-145 cells incubated for 72 hrs by CCK8 assay; type: functional, cell-based; conditions: DU-145, 72 h
Raji = assay: Antiproliferative activity against human Raji cells incubated for 3 to 6 days by alamar blue assay; type: functional, cell-based
SGC-7901 = assay: Cytotoxicity against human SGC-7901 cells incubated for 72 hrs by Alamar Blue method; type: functional, cell-based; conditions: SGC-7901, 72 h
LNCaP [9] = assay: Antiproliferative activity against human LNCaP cells incubated for 72 hrs by CCK8 assay; type: functional, cell-based
RKO = assay: Cytotoxicity against human RKO cells incubated for 72 hrs by Cell Titer-Glo luminescence assay; type: functional, cell-based
PC-3 = assay: Antiproliferative activity against human PC-3 cells incubated for 72 hrs by CCK8 assay; type: functional, cell-based; conditions: PC-3, 72 h
HGC-27 = assay: Cytotoxicity against human HGC-27 cells incubated for 72 hrs by Alamar Blue method; type: functional, cell-based; conditions: HGC-27, 72 h
SW1990 = assay: Antiproliferative activity against human SW1990 incubated for 72 hrs by alamar blue assay; type: functional, cell-based; conditions: SW1990, 72 h
ASPC1 = assay: Antiproliferative activity against human ASPC1 incubated for 72 hrs by alamar blue assay; type: functional, cell-based; conditions: ASPC1, 72 h
BXPC-3 = assay: Antiproliferative activity against human BXPC-3 incubated for 72 hrs by alamar blue assay; type: functional, cell-based; conditions: BXPC-3, 72 h
CFPAC-1 = assay: Antiproliferative activity against human CFPAC-1 incubated for 72 hrs by alamar blue assay; type: functional, cell-based; conditions: CFPAC-1, 72 h
[10] = Antitumor activity against human PaTu8988 cells xenografted in NOD/SCID mouse assessed as tumor growth inhibition at 5 mg/kg, ip administered daily for 60 days by digital caliper method relative to control; type: functional; conditions: 1440 h, time 60 day, read-out: TGI
Jurkat [11] = assay: Antiproliferative activity against human Jurkat cells incubated for 3 to 6 days by alamar blue assay; type: functional, cell-based
NCI-N87 = assay: Cytotoxicity against human NCI-N87 cells incubated for 72 hrs by Alamar Blue method; type: functional, cell-based; conditions: NCI-N87, 72 h
SW480 = assay: Cytotoxicity against human SW480 cells incubated for 72 hrs by Cell Titer-Glo luminescence assay; type: functional, cell-based; conditions: SW480, 72 h
MGC-803 = assay: Cytotoxicity against human MGC-803 cells incubated for 72 hrs by Alamar Blue method; type: functional, cell-based; conditions: MGC-803, 72 h
PANC-1 = assay: Cytotoxicity against human Panc-1 cells incubated for 72 hrs by alamar blue assay; type: functional, cell-based; conditions: PANC-1, 72 h

Structure (SMILES): COC/C(C)=C/[C@@H]1OC(=O)[C@H]([C@@H]2CC[C@]34C[C@]23C=C[C@@H]2[C@@]3(C)CC=C5C[C@@H](c6ccc7c(c6)OCO7)OC[C@]5(C)[C@@H]3C[C@@H](O)[C@]24C)[C@H]1O
IC50 (HT-29): > 10000 nM

Structure (SMILES): C[C@@]12[C@H](O)C=C[C@]3(C)C(=O)O[C@H](C=C4COC(=O)C[C@H]41)[C@H]23
IC50 (NCI-H446): 16000 nM
IC50 (MCF7 [1]): 11000 nM
IC50 (HeLa): 10000 nM

Structure (SMILES): C/C(=C\[C@H]1C[C@@H]([C@@H]2CC[C@]34C[C@]23C=C[C@@H]2[C@@]3(C)CC=C5C[C@@H](c6ccccc6)OC[C@]5(C)[C@@H]3C[C@@H](O)[C@]24C)C(=O)O1)CO [DICHAPETALIN A]
IC50 (HL-60): 11000 nM
EC50 (HCT-116): 250 nM
IC50 (SW626): 340 nM
IC50 (CCRF-CEM): 9600 nM
IC50 (Jurkat [2]): 3000 nM
EC90 (L1210): < 0.17 nM
IC50 [3]: 7000 nM
IC50 (LNCaP [4]): 12000 nM
EC50 (WM 266-4): 17000 nM

IC50 (MDA-MB-231): 6000 nM
IC50 (MCF7 [7]): 4000 nM
Structure (SMILES): COC(=O)C[C@H]1[C@]2(C)C3=C(C)[C@H](c4ccoc4)C[C@H]3O[C@@H]2[C@@H]2OC(=O)[C@]3(C)C=CC(=O)[C@@]1(C)[C@@H]23 [NIMBOLIDE]
Cmax [5]: 15.3 ng/mL
Cmax [6]: 5560 ng/mL

Structure (SMILES): CC(C)[C@]12O[C@H]1[C@@H]1O[C@@]13[C@@]1(C)CCC4=C(COC4=O)[C@@H]1C[C@@H]1O[C@@]13C2=O [TRIPTONIDE]
IC50 (AGS): < 20 nM
IC50 [8]: < 20 nM
IC50 (DU-145): 10 nM
IC50 (Raji): 4 nM
IC50 (SGC-7901): < 20 nM
IC50 (LNCaP [9]): 10 nM
IC50 (RKO): 15 nM
IC50 (PC-3): 12 nM
IC50 (HGC-27): < 20 nM
IC50 (SW1990): < 20 nM
IC50 (ASPC1): < 20 nM
IC50 (BXPC-3): < 20 nM
IC50 (CFPAC-1): < 20 nM
inhibition in vivo at 5 mg/kg [10]: 97.5%
IC50 (Jurkat [11]): 4 nM
IC50 (NCI-N87): < 20 nM
IC50 (SW480): 17 nM
IC50 (MGC-803): < 20 nM
IC50 (PANC-1): < 20 nM
